Patent US6841567B1, “Cyclic substituted fused pyrrolocarbazoles and isoindolones” (Cephalon, Inc., priority 1999, dated 2005)

Experiments:
[1] = target: T1, PDGFβ receptor kinase domain (recombinant human PDGFRβ) (Homo sapiens, UniProt P09619); assay: Inhibition of platelet derived growth factor receptor kinase activity (ELISA); format: biochemical; conditions: 300 nM compound
T1 construct: kinase activity of baculovirus-expressed PDGFβ receptor kinase domain; made in house; host or cells: baculovirus expression system
Description: Cyclic substituted fused pyrrolocarbazole and isoindolone compounds were examined for their inhibitory effects on the kinase activity of baculovirus-expressed PDGFβ receptor kinase domain using the trkA kinase ELISA described above. Assays were performed in substrate (PLC-γ/GST)-coated 96-well microtiter plates. Each 100-μl reaction mixture contained 50 mM HEPES, pH 7.4, 20 μM ATP, 10 mM MnCl2, 0.1% BSA, 2% DMSO, and various concentrations of inhibitor. The reaction was initiated by addition of prephosphorylated recombinant human enzyme (10 ng/ml PDGFRβ) and allowed to proceed for 15 minutes at 37° C. The prephosphorylated enzyme was prepared prior to use by incubation of the kinase in buffer containing 20 μM ATP and 10 mM MnCl2 for 1 hour at 4° C. Detection of phosphorylated product was done by adding horseradish peroxidase (HRP)-conjugated antII-phosphotyrosine antibody (UBI). The HRP substrate solution containing 3,3′-5,5′-tetramethylbenzidine and hydrogen peroxide was later added and the plates were incubated for 10 minutes at room temperature. The reaction was quenched with acid and the resulting absorbance was read at 450 nm using a Microplate Bio-kinetics Reader (Bio-Tek Instrument EL 312e). Inhibition data were analyzed using the sigmoidal dose-response (variable slope) equation in GraphPad Prism.

[2] = target: T2, baculovirus-expressed human trkA cytoplasmic domain (Homo sapiens, UniProt P04629); assay: Inhibition of trkA tyrosine kinase activity (ELISA-based assay); format: biochemical; conditions: for trkA kinase activity % Inh. @ 300 nM (values in parentheses) / inhibition at 0.3 µM: 300 nM compound; for IC50: 40 μM ATP; for inhibition at 0.3 µM: read-out: trkA kinase activity % Inh. @ 300 nM (values in parentheses)
T2 construct: baculovirus-expressed human trkA cytoplasmic domain; made in house; host or cells: baculovirus expression system
Description: Selected cyclic substituted fused pyrrolocarbazole and isoindolone compounds were tested for their ability to inhibit the kinase activity of baculovirus-expressed human trkA cytoplasmic domain using an ELISA-based assay as previously described (Angeles et al., Anal. Biochem. 236: 49-55, 1996). Briefly, the 96-well microtiter plate was coated with substrate solution (recombinant human phospholipase C-γ1/glutathione S-transferase fusion protein (Rotin et al., EMBO J., 11: 559-567, 1992). Inhibition studies were performed in 100 μl assay mixtures containing 50 mM Hepes, pH 7.4, 40 μM ATP, 10 mM MnCl2, 0.1% BSA, 2% DMSO, and various concentrations of inhibitor. The reaction was initiated by addition of trkA kinase and allowed to proceed for 15 minutes at 37° C. An antibody to phosphotyrosine (UBI) was then added, followed by a secondary enzyme-conjugated antibody, alkaline phosphatase-labelled goat antII-mouse IgG (Bio-Rad). The activity of the bound enzyme was measured via an amplified detection system (Gibco-BRL). Inhibition data were analyzed using the sigimoidal dose-response (variable slope) equation in GraphPad Prism.

[3] = target: T3, VEGF receptor (human flk-1, KDR, VEGFR2) kinase domain (Homo sapiens, UniProt P35968); assay: Inhibition of vascular endothelial growth factor receptor kinase activity (ELISA); format: biochemical; conditions: for inhibition at 0.3 µM: read-out: VEGF receptor kinase activity % Inh. @ 300 nM (values in parentheses); for IC50: 40 μM ATP
T3 construct: VEGF receptor (human flk-1, KDR, VEGFR2) kinase domain; made in house; host or cells: baculovirus expression system
Description: Cyclic substituted fused pyrrolocarbazole and isoindolone compounds were examined for their inhibitory effects on the kinase activity of baculovirus-expressed VEGF receptor (human flk-1, KDR, VEGFR2) kinase domain using the procedure described for the trkA kinase ELISA assay described above. The kinase reaction mixture, consisting of 50 mM Hepes, pH 7.4, 40 μM ATP, 10 mM MnCl2, 0.1% BSA, 2% DMSO, and various concentrations of inhibitor, was transferred to PLC-γ/GST-coated plates. VEGFR kinase was added and the reaction was allowed to proceed for 15 min. at 37 C. Detection of phosphorylated product was accomplished by addition of antII-phosphotyrosine antibody (UBI). A secondary enzymeconjugated antibody was delivered to capture the antibody-phosphorylated PLC-γ/GST complex. The activity of the bound enzyme was measured via an amplified detection system (Gibco-BRL). Inhibition data were analyzed using the sigmoidal dose-response (variable slope) equation in GraphPad Prism.

[4] = target: T4, trkA (NIH3T3 cells transfected with trkA) (Homo sapiens, UniProt P04629); assay: Inhibition of NGF-stimulated trk phosphorylation in a whole cell preparation; format: cell-based; set-up: key to Cell Score @ 100 nM (percent decrease in trk protein band): 0=no decrease; 1=1-25%; 2=26-49%; 3=50-75%; 4=76-100%; conditions: NGF 10 ng/ml; for Cell Score @ 100 nM (percent decrease in trk protein band): 100 nM compound; for Cell Score @ 1 uM (percent decrease in trk protein band): 1 uM compound
T4 construct: expressed in transfected cells; host or cells: NIH3T3
Description: NIH3T3 cells transfected with trkA were grown in 100 mm dishes. Subconfluent cells were serum-starved by replacing media with serum-free 0.05% BSA-DMEM containing compound (100 nM and 1 μM) or DMSO (added to controls) for one hour at 37° C. NGF (Harlan/Bioproducts for Science) was then added to the cells at a concentration of 10 ng/ml for 5 minutes. Cells were lysed in buffer containing detergent and protease inhibitors. Clarified cell lysates were normalized to protein using BCA method and immunoprecipitated with antII-trk antibody. Polyclonal antII-trk antibody was prepared against a peptide corresponding to the 14 amino acids at the carboxy terminus of trk (Martin-Zanca et al., Mol. Cell. Biol. 9: 24-33, 1989). The immune complexes were collected on Protein A Sepharose beads (Sigma Chem. Co., St. Lois, Mo.), separated by SDS polyacrylamide gel electrophoresis (SDS-PAGE), and transferred to a polyvinylidene difluoride (PVDF) membrane. The membrane was immunoblotted with antII-phosphotyrosine antibody (UBI), followed by incubation with horseradish peroxidase coupled goat antII-mouse IgG (Bio-Rad Laboratories, Hercules, Calif.). Phosphorylated proteins were visualized using ECL (Arnersham Life Science, Inc., Arlington Heights, Ill.). The area of the trk protein band was measured and compared to NGF-stimulated control. The inhibition scoring system used, based on percent decrease in trk protein band, was as follows: 0=no decrease; 1=1-25%; 2=26-49%; 3=50-75%; 4=76-100%.

[5] = target: protein kinase C (UBI; mixed isozymes of a, b, g); assay: Inhibition of protein kinase C activity (Millipore Multiscreen TCA in-plate assay); format: biochemical; conditions: for Protein kinase C activity, values in parentheses: concentration not given
Description: Protein kinase C activity was assessed using the Millipore Multiscreen TCA “in-plate” assay as described in Pitt, A. M. and Lee, C. (J. Biomol. Screening, 1: 47-51, 1996). Assays were performed in 96-well Multiscreen-DP plates (Millipore). Each […] assay mixture contained 20 mM Hepes, pH 7.4, 10 mM MgCl2, 2.5 mM EGTA, 2.5 mM CaCl2, […] phosphatidyl serine, […] diolein, […] histone H-1 (Fluka), […] [γ-^32P]ATP, 1.5 ng protein kinase C (UBI; mixed isozymes of a, b, g), 0.1% BSA, 2% DMSO, and test cyclic substituted fused pyrrolocarbazole compound. The reaction was allowed to proceed for 10 min at 37° C., then quenched by adding ice cold 50% trichloroacetic acid. The plates were allowed to equilibrate for 30 min at 4° C., then washed with ice cold 25% TCA. Scintillation cocktail was added to the plates, and the radioactivity was determined using Wallac MicroBeta 1450 PLUS scintillation counter. The IC50 values were calculated by fitting the data to the sigmoidal dose-response (variable slope) equation in GraphPad Prism.

T4 sequence (P04629 33-796, species assumed): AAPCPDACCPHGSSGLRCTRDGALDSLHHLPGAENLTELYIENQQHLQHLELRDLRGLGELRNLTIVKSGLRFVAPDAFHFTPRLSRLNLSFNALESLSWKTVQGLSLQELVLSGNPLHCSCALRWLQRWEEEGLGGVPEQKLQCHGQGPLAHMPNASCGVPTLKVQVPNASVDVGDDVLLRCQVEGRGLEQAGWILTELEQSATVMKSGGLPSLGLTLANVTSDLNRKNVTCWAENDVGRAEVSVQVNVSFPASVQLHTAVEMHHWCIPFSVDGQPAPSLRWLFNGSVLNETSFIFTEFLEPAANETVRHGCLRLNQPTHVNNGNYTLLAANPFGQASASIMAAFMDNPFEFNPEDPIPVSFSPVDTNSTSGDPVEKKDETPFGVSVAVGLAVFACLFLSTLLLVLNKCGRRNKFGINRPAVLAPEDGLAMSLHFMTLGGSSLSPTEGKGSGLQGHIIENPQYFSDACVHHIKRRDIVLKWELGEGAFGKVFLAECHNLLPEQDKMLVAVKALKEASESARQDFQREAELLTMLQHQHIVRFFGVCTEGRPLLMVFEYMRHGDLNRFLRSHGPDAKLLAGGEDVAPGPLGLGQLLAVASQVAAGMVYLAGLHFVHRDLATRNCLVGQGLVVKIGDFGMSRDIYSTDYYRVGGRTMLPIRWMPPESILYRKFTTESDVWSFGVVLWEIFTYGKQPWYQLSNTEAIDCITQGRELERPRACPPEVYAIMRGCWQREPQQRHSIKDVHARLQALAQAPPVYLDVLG
T2 sequence (P04629 440-796 limits assumed): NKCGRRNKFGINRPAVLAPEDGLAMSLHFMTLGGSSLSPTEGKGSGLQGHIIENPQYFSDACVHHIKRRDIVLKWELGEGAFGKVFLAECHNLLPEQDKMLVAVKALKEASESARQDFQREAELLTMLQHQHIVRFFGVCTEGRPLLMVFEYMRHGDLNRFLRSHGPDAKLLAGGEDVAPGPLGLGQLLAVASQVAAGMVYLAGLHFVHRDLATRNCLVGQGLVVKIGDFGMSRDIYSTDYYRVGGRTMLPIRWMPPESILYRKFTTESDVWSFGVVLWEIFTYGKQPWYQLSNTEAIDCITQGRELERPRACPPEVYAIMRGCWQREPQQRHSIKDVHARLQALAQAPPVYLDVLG
T3 sequence (P35968 834-1162 limits assumed): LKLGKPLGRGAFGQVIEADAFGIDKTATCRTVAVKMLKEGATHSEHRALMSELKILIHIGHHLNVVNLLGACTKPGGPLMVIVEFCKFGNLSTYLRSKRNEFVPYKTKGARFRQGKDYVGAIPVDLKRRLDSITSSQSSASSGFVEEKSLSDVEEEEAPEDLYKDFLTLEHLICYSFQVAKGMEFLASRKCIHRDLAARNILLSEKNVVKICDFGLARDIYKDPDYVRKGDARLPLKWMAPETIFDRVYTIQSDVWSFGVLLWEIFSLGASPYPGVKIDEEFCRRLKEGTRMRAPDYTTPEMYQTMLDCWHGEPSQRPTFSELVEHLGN
T1 sequence (P09619 600-962 limits assumed): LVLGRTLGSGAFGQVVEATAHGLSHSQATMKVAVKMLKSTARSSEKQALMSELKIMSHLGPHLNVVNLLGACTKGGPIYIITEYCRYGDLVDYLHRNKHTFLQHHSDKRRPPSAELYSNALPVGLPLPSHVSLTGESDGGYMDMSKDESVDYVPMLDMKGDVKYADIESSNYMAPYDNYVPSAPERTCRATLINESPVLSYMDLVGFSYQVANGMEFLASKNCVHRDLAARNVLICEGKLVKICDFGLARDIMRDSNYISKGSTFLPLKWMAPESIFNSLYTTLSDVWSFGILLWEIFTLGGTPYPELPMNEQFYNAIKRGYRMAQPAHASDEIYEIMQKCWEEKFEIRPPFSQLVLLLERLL

SMILES | IC50 [2] [nM] | Cell Score @ 100 nM (percent decrease in trk protein band) [4] | Cell Score @ 1 uM (percent decrease in trk protein band) [4] | IC50 [5] [nM] | other results
O=C1NCc2c1c1c(c3[nH]c4ccccc4c23)C(C2(O)CCCC2CN2CCOCC2)c2ccccc2-1 (mixture of isomers) [II-17] |  |  |  |  | PDGFRβ % inh @ 300 nM (values in parentheses) [1]: (47) %; trkA kinase activity % Inh. @ 300 nM (values in parentheses) [2]: (33) %; VEGF receptor kinase activity % Inh. @ 300 nM (values in parentheses) ([3]; 300 nM compound): (33) %
CC1(C2c3ccccc3-c3c4c(c5c([nH]c6ccccc65)c32)CNC4=O)CCCO1 (racemic) [II-04] | 8 | 1 (1=1-25%) | 2 (2=26-49%) | > 10000 | 
COCCOCc1ccc2c(c1)c1c3c(c4c(c1n2CC1CO1)Cc1ccccc1-4)C(=O)NC3 (racemic) [II-61] |  |  |  | 1360 | 
O=C1NCc2c1c1c(c3c2c2ccccc2n3CC2CCCCO2)Cc2ccccc2-1 (racemic) [II-62] |  |  |  |  | trkA kinase activity % Inh. @ 300 nM (values in parentheses) [2]: (27) %; Protein kinase C activity, values in parentheses [5]: (27)
O=C1NCc2c1c1c(c3c2c2ccccc2n3CC2CCCOC2)Cc2ccccc2-1 (racemic) [II-63] |  |  |  |  | trkA kinase activity % Inh. @ 300 nM (values in parentheses) [2]: (28) %; Protein kinase C activity, values in parentheses [5]: (28)
O=C1NCc2c1c1c(c3[nH]c4ccccc4c23)C(C2(O)CCN(Cc3ccccc3)CC2)c2ccccc2-1 (stereo not drawn) [II-02] | 64 |  |  | 7500 | 
O=C1NCc2c1c1c(c3[nH]c4ccccc4c23)C(C2(O)CCOCC2)c2ccccc2-1 (stereo not drawn) [II-03] | 72 |  |  | 4070 | 
O=C1NCc2c1c1c(c3[nH]c4ccccc4c23)C(C2CCCO2)c2ccccc2-1 (stereo not drawn) [II-07] | 19 | 1 (1=1-25%) | 2 (2=26-49%) | 7120 | 
CN1CCC(O)(C2c3ccccc3-c3c4c(c5c([nH]c6ccccc65)c32)CNC4=O)CC1 (stereo not drawn) [II-10] | 182 |  |  | 1570 | 
O=C1NCc2c1c1c(c3[nH]c4ccccc4c23)C(C2(O)CCCO2)c2ccccc2-1 (stereo not drawn) [II-42] | 149 |  |  | 6230 | IC50 [3]: 1390 nM

Now from value to molecule, other results behind:

IC50 [2] [nM] | Cell Score @ 100 nM (percent decrease in trk protein band) [4] | Cell Score @ 1 uM (percent decrease in trk protein band) [4] | IC50 [5] [nM] | SMILES | other results
78 | 0 | 3 (3=50-75%) | > 10000 | O=C1NCc2c1c1c(c3[nH]c4ccccc4c23)C(C2(CO)CCCO2)c2ccccc2-1 (single isomer, unassigned) [II-35] | inhibition at 0.3 µM ([3]; 300 nM compound): 55%
20 | 1 (1=1-25%) | 4 (4=76-100%) | > 10000 | O=C1NCc2c1c1c(c3[nH]c4ccccc4c23)C(C2(CO)CCCO2)c2ccccc2-1 (single isomer, unassigned) [II-36] | IC50 [3]: 846 nM
405 | 2 (2=26-49%) | 2 (2=26-49%) | > 10000 | O=C1NCc2c1c1c(c3[nH]c4ccccc4c23)C(C2CCC(O)O2)c2ccccc2-1 (single isomer, unassigned) [II-38] | IC50 [3]: 5100 nM
 |  |  | > 10000 | O=C1NCc2c1c1c(c3[nH]c4ccccc4c23)C(C2(O)CCSCC2)c2ccccc2-1 (stereo not drawn) [II-14] | inhibition at 0.3 µM [2]: 32%
 |  |  | > 10000 | O=C1NCc2c1c1c(c3[nH]c4ccccc4c23)C(C2(O)CCc3ccccc3C2)c2ccccc2-1 (stereo not drawn) [II-15] | inhibition at 0.3 µM [2]: 26%
15 | 2 (2=26-49%) | 4 (4=76-100%) | > 10000 | O=C1NCc2c1c1c(c3[nH]c4ccccc4c23)C(C2(CO)CCCO2)c2ccccc2-1 (stereo not drawn) [II-21] | 
45 | 2 (2=26-49%) | 4 (4=76-100%) | 2070 | CC1(C2c3ccccc3-c3c4c(c5c([nH]c6ccccc65)c32)CNC4=O)CC(O)(CO)CO1 (stereo not drawn) [II-26] | inhibition at 0.3 µM ([3]; 300 nM compound): 48%
16 | 0 | 4 (4=76-100%) | 2080 | O=C1NCc2c1c1c(c3[nH]c4ccccc4c23)C(C2(C(O)CO)CCCO2)c2ccccc2-1 (stereo not drawn) [II-29] | 
153 |  |  | 1040 | O=C1CCC(CO)(C2c3ccccc3-c3c4c(c5c([nH]c6ccccc65)c32)CNC4=O)O1 (stereo not drawn) [II-33] | 
44 | 1 (1=1-25%) | 3 (3=50-75%) | 1530 | CC1(C)COC(=O)C1(O)C1c2ccccc2-c2c3c(c4c([nH]c5ccccc54)c21)CNC3=O (stereo not drawn) [II-47] | 
27 | 2 (2=26-49%) | 3 (3=50-75%) |  | COCCOC(=O)c1ccc2[nH]c3c4c(c5c(c3c2c1)CNC5=O)-c1ccccc1C4C1CCC(OCCOC)O1 (stereo not drawn) [II-52] | inhibition at 0.3 µM ([1]; read-out: PDGFRβ % inh @ 300 nM (values in parentheses)): 45%
8 | 4 (4=76-100%) | 4 (4=76-100%) | 2200 | COc1ccc2c(c1)C(C1(CO)CCCO1)c1c-2c2c(c3c1[nH]c1ccccc13)CNC2=O (stereo not drawn) [II-53] | IC50 [3]: 209 nM
